Measurements taken from a compilation of properties of binary mixtures (doi:10.1016/j.molliq.2018.12.032).

Assay: xn = mol fraction of the nth substance listed
Conditions: 101 kPa

C[P+](c1ccccc1)(c1ccccc1)c1ccccc1.[Br-] + OCCO
x1 = 0.25
Conditions | electrical conductivity [S/m] | viscosity [mPa·s]
293.15 K | 0.119 | 211
303.15 K | 0.153 | 136
313.15 K | 0.192 | 89.5
323.15 K | 0.238 | 60.6
333.15 K | 0.291 | 42
343.15 K | 0.352 | 29.7
353.15 K | 0.422 | 21.5

[Cl-].c1ccc(C[P+](c2ccccc2)(c2ccccc2)c2ccccc2)cc1 + OCCO
x1 = 0.083
Conditions | electrical conductivity [S/m] | viscosity [mPa·s]
303.15 K | 0.241 | 43.7
323.15 K | 0.365 | 24.2
333.15 K | 0.441 | 18.4
343.15 K | 0.527 | 14.3
353.15 K | 0.623 | 11.3

C[P+](c1ccccc1)(c1ccccc1)c1ccccc1.[Br-] + OCCOCCO
x2 = 0.8
Conditions | electrical conductivity [S/m] | viscosity [mPa·s]
293.15 K | 0.0618 | 141
303.15 K | 0.0986 | 103
313.15 K | 0.132 | 60.6
323.15 K | 0.18 | 38.7
333.15 K | 0.258 | 27
343.15 K | 0.294 | 20.4
353.15 K | 0.337 | 18.3

[Cl-].c1ccc(C[P+](c2ccccc2)(c2ccccc2)c2ccccc2)cc1 + OCCOCCO
x2 = 0.875
Conditions | electrical conductivity [S/m] | viscosity [mPa·s]
293.15 K | 0.0466 | –
303.15 K | 0.0706 | 102
323.15 K | 0.116 | 42.3
333.15 K | 0.147 | 30
343.15 K | 0.158 | 22.8
